In patent US20100144733A1, “Compounds, compositions and methods comprising heteroaromatic derivatives” (Institute for OneWorld Health, priority 2008, published 2010):

biological target: T1, CFTR (Homo sapiens, UniProt P13569); assay: T84 assay (FLIPR membrane potential dye, forskolin/IBMX-stimulated CFTR channel activity); type: cell-based; settings: imidazole and triazole-containing compounds (Tables 13, 14, 14′), read-out: IC50 (μM) (T84 assay)
T1 construct: endogenous in cells; host or cells: T84 human colonic cells (ECACC)
T1 sequence (P13569 whole entry): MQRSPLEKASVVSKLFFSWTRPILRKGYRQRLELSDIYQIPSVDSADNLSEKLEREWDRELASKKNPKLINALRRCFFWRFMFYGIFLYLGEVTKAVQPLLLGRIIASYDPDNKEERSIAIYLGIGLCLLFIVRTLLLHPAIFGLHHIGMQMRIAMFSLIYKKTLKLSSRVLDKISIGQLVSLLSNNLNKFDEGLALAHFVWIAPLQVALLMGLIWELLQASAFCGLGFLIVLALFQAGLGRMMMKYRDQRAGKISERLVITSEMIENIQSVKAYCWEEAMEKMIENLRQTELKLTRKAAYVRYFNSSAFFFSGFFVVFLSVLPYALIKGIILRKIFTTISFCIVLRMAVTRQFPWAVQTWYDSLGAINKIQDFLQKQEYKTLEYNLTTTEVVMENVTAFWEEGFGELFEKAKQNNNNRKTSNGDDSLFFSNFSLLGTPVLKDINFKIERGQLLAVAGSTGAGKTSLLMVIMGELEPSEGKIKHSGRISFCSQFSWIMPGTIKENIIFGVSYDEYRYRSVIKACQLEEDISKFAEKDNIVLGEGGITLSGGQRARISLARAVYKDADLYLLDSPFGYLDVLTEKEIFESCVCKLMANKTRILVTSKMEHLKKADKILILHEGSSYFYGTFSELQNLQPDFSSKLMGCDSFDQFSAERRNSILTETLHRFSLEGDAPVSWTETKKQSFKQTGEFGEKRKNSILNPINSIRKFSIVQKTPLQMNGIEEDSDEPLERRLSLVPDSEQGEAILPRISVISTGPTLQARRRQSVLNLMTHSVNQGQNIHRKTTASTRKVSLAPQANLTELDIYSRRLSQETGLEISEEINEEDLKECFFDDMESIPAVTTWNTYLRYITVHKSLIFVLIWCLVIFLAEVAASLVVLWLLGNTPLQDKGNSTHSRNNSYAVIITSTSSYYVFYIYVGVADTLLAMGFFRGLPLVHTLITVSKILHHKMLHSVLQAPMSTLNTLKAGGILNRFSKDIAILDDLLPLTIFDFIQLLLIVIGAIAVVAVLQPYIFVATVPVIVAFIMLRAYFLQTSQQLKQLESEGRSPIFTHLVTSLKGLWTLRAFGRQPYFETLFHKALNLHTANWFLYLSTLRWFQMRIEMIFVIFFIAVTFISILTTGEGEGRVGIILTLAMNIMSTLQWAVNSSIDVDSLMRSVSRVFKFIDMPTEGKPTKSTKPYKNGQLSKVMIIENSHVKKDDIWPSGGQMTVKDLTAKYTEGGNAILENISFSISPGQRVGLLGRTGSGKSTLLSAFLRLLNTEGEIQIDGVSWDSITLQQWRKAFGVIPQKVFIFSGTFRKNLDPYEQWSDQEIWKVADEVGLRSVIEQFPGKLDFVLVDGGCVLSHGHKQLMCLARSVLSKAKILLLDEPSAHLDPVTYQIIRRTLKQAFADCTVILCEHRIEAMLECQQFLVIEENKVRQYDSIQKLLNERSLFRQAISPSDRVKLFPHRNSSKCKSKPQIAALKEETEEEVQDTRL
Method in brief: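 Fluorescence from a membrane potential dye in T84 monolayers (HBSS with 10 mM Hepes) is followed each second for 150 s. Cells are exposed to test compound during the 45 min dye loading, then challenged with forskolin (10 μM) and IBMX (100 μM) to open CFTR. Inhibitors suppress the depolarization-driven fluorescence increase.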

Row | Structure (SMILES) | IC50
1 | CON(Cc1ccc(C(C)C)cc1)C(=O)c1ncn(-c2cc(Cl)c(O)c(Cl)c2)n1 [128i, 1-(3,5-dichloro-4-hydroxyphenyl)-N-(4-isopropylbenzyl)-N-methoxy-1H-1,2,4-triazole-3-carboxamide] | 2.19 µM

same assay, conditions: oxadiazole-containing compounds (a series), average of at least 2 runs unless annotated n = 1, read-out: IC50

Row | Structure (SMILES) | IC50
2 | O=C(NCc1cccc(-c2ccccc2)c1)c1nc(-c2cc(Cl)c(O)c(Cl)c2)no1 [125a, N-(biphenyl-3-ylmethyl)-3-(3,5-dichloro-4-hydroxyphenyl)-1,2,4-oxadiazole-5-carboxamide] | 6.76 µM
3 | O=C(NCc1cc(C(F)(F)F)ccc1F)c1nc(-c2cc(Cl)c(O)c(Cl)c2)no1 [126a, 3-(3,5-dichloro-4-hydroxyphenyl)-N-(2-fluoro-5-(trifluoromethyl)benzyl)-1,2,4-oxadiazole-5-carboxamide] | 23.4 µM
4 | CC(C)Oc1ccc(CNC(=O)c2nc(-c3cc(Cl)c(O)c(Cl)c3)no2)cc1 [127a, 3-(3,5-dichloro-4-hydroxyphenyl)-N-(4-isopropoxybenzyl)-1,2,4-oxadiazole-5-carboxamide] | 9.95 µM
5 | O=C(NCc1ccc(Cl)cc1)c1nc(-c2cc(Cl)c(O)c(Cl)c2)no1 [128a, N-(4-chlorobenzyl)-3-(3,5-dichloro-4-hydroxyphenyl)-1,2,4-oxadiazole-5-carboxamide] | 12.8 µM
6 | O=C(NCc1ccccc1C(F)(F)F)c1nc(-c2cc(Cl)c(O)c(Cl)c2)no1 [129a, 3-(3,5-dichloro-4-hydroxyphenyl)-N-(2-(trifluoromethyl)benzyl)-1,2,4-oxadiazole-5-carboxamide] | 16.7 µM
7 | O=C(NCc1ccc(F)c(Cl)c1)c1nc(-c2cc(Cl)c(O)c(Cl)c2)no1 [130a, N-(3-chloro-4-fluorobenzyl)-3-(3,5-dichloro-4-hydroxyphenyl)-1,2,4-oxadiazole-5-carboxamide] | 9.44 µM
8 | O=C(NCc1ccc(-c2ccccc2)cc1)c1nc(-c2cc(Cl)c(O)c(Cl)c2)no1 [131a, N-(biphenyl-4-ylmethyl)-3-(3,5-dichloro-4-hydroxyphenyl)-1,2,4-oxadiazole-5-carboxamide] | 6.83 µM
9 | O=C(NCc1ccc(F)cc1F)c1nc(-c2cc(Cl)c(O)c(Cl)c2)no1 [132a, 3-(3,5-dichloro-4-hydroxyphenyl)-N-(2,4-difluorobenzyl)-1,2,4-oxadiazole-5-carboxamide] | 16.1 µM
10 | CN(C)c1ccc(CNC(=O)c2nc(-c3cc(Cl)c(O)c(Cl)c3)no2)cc1 [133a, 3-(3,5-dichloro-4-hydroxyphenyl)-N-(4-(dimethylamino)benzyl)-1,2,4-oxadiazole-5-carboxamide] | 17.9 µM
11 | O=C(NCc1cccc(C(F)(F)F)c1)c1nc(-c2cc(Cl)c(O)c(Cl)c2)no1 [134a, 3-(3,5-dichloro-4-hydroxyphenyl)-N-(3-(trifluoromethyl)benzyl)-1,2,4-oxadiazole-5-carboxamide] | 8.65 µM
12 | O=C(NCc1cccc(OC(F)F)c1)c1nc(-c2cc(Cl)c(O)c(Cl)c2)no1 [135a, 3-(3,5-dichloro-4-hydroxyphenyl)-N-(3-(difluoromethoxy)benzyl)-1,2,4-oxadiazole-5-carboxamide] | 20.4 µM
13 | CC(C)(C)c1ccc(CNC(=O)c2nc(-c3cc(Cl)c(O)c(Cl)c3)no2)cc1 [136a, N-(4-tert-butylbenzyl)-3-(3,5-dichloro-4-hydroxyphenyl)-1,2,4-oxadiazole-5-carboxamide] | 2.95 µM
14 | O=C(NCc1cc(F)cc(F)c1)c1nc(-c2cc(Cl)c(O)c(Cl)c2)no1 [137a, 3-(3,5-dichloro-4-hydroxyphenyl)-N-(3,5-difluorobenzyl)-1,2,4-oxadiazole-5-carboxamide] | 24.4 µM
15 | CN(Cc1ccc(C(F)(F)F)cc1)C(=O)c1nc(-c2cc(Cl)c(O)c(Cl)c2)no1 [138a, 3-(3,5-dichloro-4-hydroxyphenyl)-N-methyl-N-(4-(trifluoromethyl)benzyl)-1,2,4-oxadiazole-5-carboxamide] | 3.84 µM
16 | CN(Cc1cccc(C(F)(F)F)c1)C(=O)c1nc(-c2cc(Cl)c(O)c(Cl)c2)no1 [139a, 3-(3,5-dichloro-4-hydroxyphenyl)-N-methyl-N-(3-(trifluoromethyl)benzyl)-1,2,4-oxadiazole-5-carboxamide] | 5.1 µM
17 | CCN(Cc1ccccc1)C(=O)c1nc(-c2cc(Cl)c(O)c(Cl)c2)no1 [140a, N-benzyl-3-(3,5-dichloro-4-hydroxyphenyl)-N-ethyl-1,2,4-oxadiazole-5-carboxamide] | 19.9 µM
18 | O=C(NCc1cccc(OCc2ccccc2)c1)c1nc(-c2cc(Cl)c(O)c(Cl)c2)no1 [141a, N-(3-(benzyloxy)benzyl)-3-(3,5-dichloro-4-hydroxyphenyl)-1,2,4-oxadiazole-5-carboxamide] | 7.79 µM
19 | CN(Cc1ccc(Oc2ccccc2)cc1)C(=O)c1nc(-c2cc(Cl)c(O)c(Cl)c2)no1 [142a, 3-(3,5-dichloro-4-hydroxyphenyl)-N-methyl-N-(4-phenoxybenzyl)-1,2,4-oxadiazole-5-carboxamide] | 10.2 µM
20 | CC(NC(=O)c1nc(-c2cc(Cl)c(O)c(Cl)c2)no1)c1ccc(Br)cc1 (centres unmarked) [143a, N-(1-(4-bromophenyl)ethyl)-3-(3,5-dichloro-4-hydroxyphenyl)-1,2,4-oxadiazole-5-carboxamide] | 5.15 µM

Row | Structure (SMILES) | IC50
21 | CN(Cc1cccc(Oc2ccccc2)c1)C(=O)c1nc(-c2cc(Cl)c(O)c(Cl)c2)no1 [144a, 3-(3,5-dichloro-4-hydroxyphenyl)-N-methyl-N-(3-phenoxybenzyl)-1,2,4-oxadiazole-5-carboxamide] | 6.33 µM
22 | O=C(NCc1cccc(Oc2ccccc2)c1)c1nc(-c2cc(Cl)c(O)c(Cl)c2)no1 [145a, 3-(3,5-dichloro-4-hydroxyphenyl)-N-(3-phenoxybenzyl)-1,2,4-oxadiazole-5-carboxamide] | 9.87 µM
23 | O=C(NCc1ccc(F)c(C(F)(F)F)c1)c1nc(-c2cc(Cl)c(O)c(Cl)c2)no1 [146a, 3-(3,5-dichloro-4-hydroxyphenyl)-N-(4-fluoro-3-(trifluoromethyl)benzyl)-1,2,4-oxadiazole-5-carboxamide] | 11.2 µM
24 | O=C(NCc1cccc(-c2ncccn2)c1)c1nc(-c2cc(Cl)c(O)c(Cl)c2)no1 [147a, 3-(3,5-dichloro-4-hydroxyphenyl)-N-(3-(pyrimidin-2-yl)benzyl)-1,2,4-oxadiazole-5-carboxamide] | 29.9 µM
25 | CN(Cc1ccc(C(C)(C)C)cc1)C(=O)c1nc(-c2cc(Cl)c(O)c(Cl)c2)no1 [148a, N-(4-tert-butylbenzyl)-3-(3,5-dichloro-4-hydroxyphenyl)-N-methyl-1,2,4-oxadiazole-5-carboxamide] | 8.26 µM
26 | CC(NC(=O)c1nc(-c2cc(Cl)c(O)c(Cl)c2)no1)c1ccc(Cl)cc1 (centres unmarked) [149a, N-(1-(4-chlorophenyl)ethyl)-3-(3,5-dichloro-4-hydroxyphenyl)-1,2,4-oxadiazole-5-carboxamide] | 6.7 µM
27 | CCc1ccc(CN(C)C(=O)c2nc(-c3cc(Cl)c(O)c(Cl)c3)no2)cc1 [150a, 3-(3,5-dichloro-4-hydroxyphenyl)-N-(4-ethylbenzyl)-N-methyl-1,2,4-oxadiazole-5-carboxamide] | 6.25 µM
28 | CC(C)(C)C(=O)CN(Cc1ccccc1)C(=O)c1nc(-c2cc(Cl)c(O)c(Cl)c2)no1 [151a, N-benzyl-3-(3,5-dichloro-4-hydroxyphenyl)-N-(3,3-dimethyl-2-oxobutyl)-1,2,4-oxadiazole-5-carboxamide] | 6.24 µM
29 | CC(C)(C)C(=O)CN(Cc1ccc(F)c(F)c1)C(=O)c1nc(-c2cc(Cl)c(O)c(Cl)c2)no1 [152a, 3-(3,5-dichloro-4-hydroxyphenyl)-N-(3,4-difluorobenzyl)-N-(3,3-dimethyl-2-oxobutyl)-1,2,4-oxadiazole-5-carboxamide] | 8.88 µM
30 | O=C(NCc1ccc(OCc2ccccc2)cc1)c1nc(-c2cc(Cl)c(O)c(Cl)c2)no1 [153a, N-(4-(benzyloxy)benzyl)-3-(3,5-dichloro-4-hydroxyphenyl)-1,2,4-oxadiazole-5-carboxamide] | 2.99 µM
31 | O=C(NCc1cc(F)cc(C(F)(F)F)c1)c1nc(-c2cc(Cl)c(O)c(Cl)c2)no1 [154a, 3-(3,5-dichloro-4-hydroxyphenyl)-N-(3-fluoro-5-(trifluoromethyl)benzyl)-1,2,4-oxadiazole-5-carboxamide] | 3.89 µM
32 | O=C(NCc1cc(C(F)(F)F)ccc1F)c1noc(-c2cc(Cl)c(O)c(Cl)c2)n1 [155a, 5-(3,5-dichloro-4-hydroxyphenyl)-N-(2-fluoro-5-(trifluoromethyl)benzyl)-1,2,4-oxadiazole-3-carboxamide] | 2.22 µM
33 | O=C(NCc1ccc(Cn2cccn2)cc1)c1noc(-c2cc(Cl)c(O)c(Cl)c2)n1 [156a, N-(4-((1H-pyrazol-1-yl)methyl)benzyl)-5-(3,5-dichloro-4-hydroxyphenyl)-1,2,4-oxadiazole-3-carboxamide] | 20.9 µM
34 | O=C(NCc1cccc(N2CCCCC2)c1)c1noc(-c2cc(Cl)c(O)c(Cl)c2)n1 [157a, 5-(3,5-dichloro-4-hydroxyphenyl)-N-(3-(piperidin-1-yl)benzyl)-1,2,4-oxadiazole-3-carboxamide] | 3.33 µM
35 | CN(C)c1ccc(CNC(=O)c2noc(-c3cc(Cl)c(O)c(Cl)c3)n2)cc1 [158a, 5-(3,5-dichloro-4-hydroxyphenyl)-N-(4-(dimethylamino)benzyl)-1,2,4-oxadiazole-3-carboxamide] | 17.5 µM
36 | O=C(NCc1ccc(F)c(C(F)(F)F)c1)c1noc(-c2cc(Cl)c(O)c(Cl)c2)n1 [159a, 5-(3,5-dichloro-4-hydroxyphenyl)-N-(4-fluoro-3-(trifluoromethyl)benzyl)-1,2,4-oxadiazole-3-carboxamide] | 4.83 µM
37 | CN(C)c1cccc(CNC(=O)c2noc(-c3cc(Cl)c(O)c(Cl)c3)n2)c1 [160a, 5-(3,5-dichloro-4-hydroxyphenyl)-N-(3-(dimethylamino)benzyl)-1,2,4-oxadiazole-3-carboxamide] | 7.26 µM
38 | O=C(NCc1cccc(-n2cccn2)c1)c1noc(-c2cc(Cl)c(O)c(Cl)c2)n1 [161a, N-(3-(1H-pyrazol-1-yl)benzyl)-5-(3,5-dichloro-4-hydroxyphenyl)-1,2,4-oxadiazole-3-carboxamide] | 6.21 µM
